Tested on: DBA/1J mouse
Experiment: Type II collagen induced arthritis in DBA/1J mouse
Type: in vivo
Procedure: An emulsion was prepared by mixing bovine type II collagen (100–200 μg, purchased from Collagen Gizyutsu Kensyukai) with Freund's complete adjuvant (Sigma) containing dead tubercle bacillus H37Ra was given to 6–7 week-old male DBA/1J mice (Charles River Japan) subcutaneously from the root of the tail for immunization twice at 3 week intervals, thereby developing arthritis. The compound of the present invention or a pharmaceutically acceptable salt thereof was suspended or dissolved in 0.5% hydroxypropylmethylcellulose and orally administered repeatedly at the dose of 0.01–100 mg/kg body weight using an oral sound for 6 weeks from the first immunization. This model was evaluated for the symptoms of arthritis in the four limbs according to the following criteria in 0 to 4 scores. The arthritis score of each mouse was expressed by the total of the scores of the four limbs (maximum:16 points), and when the total score was 1 or more, the onset of arthritis was acknowledged.
The thickness of the four limbs of the mouse was measured with vernier calipers and the total score of the four limbs was used as an index of arthritis. Using a soft X-ray photography (OHMIC co.), the four limbs were X rayed to evaluate the level of destruction of the joints. […]

Cc1c(C(=O)Nc2ccc(C(F)(F)F)cc2)cnn1-c1ccc(F)cc1 [1-(4-fluorophenyl)-N-(4-trifluoromethylphenyl)-5-methylpyrazole-4-carboxamide]
improvement of severity of developed arthritis, swelling of four limbs or joint destruction (repeat oral administration at 10 mg/kg body weight): did not improve | death incidence (repeat oral administration at 30 mg/kg body weight): death incidence was confirmed
